Test system: subjects with moderate-to-severe plaque psoriasis
Assay: PSSD symptom and sign scores, Example 2
Format: in vivo, human
Excerpt: Secondary endpoints included additional change from baseline of Example 1 in PASI, IGA, and PSSD at Week 52, including the proportions of subjects that achieved PAST 90, PAST 100, an IGA score of cleared (0) or minimal (1), PSSD symptoms score=0, and PSSD signs score=0.

For `CC(=O)NCCCC[C@@H]1NC(=O)[C@H](Cc2c[nH]c3c(C)cccc23)NC(=O)[C@H]([C@@H](C)O)NC(=O)[C@H](CC(N)=O)NC(=O)[C@@H](NC(C)=O)C(C)(C)SSC(C)(C)[C@@H](C(=O)N[C@@H](Cc2ccc(OCCN)cc2)C(=O)N[C@@H](Cc2ccc3ccccc3c2)C(=O)NC2(C(=O)N[C@@H](CCC(=O)O)C(=O)N[C@@H](CC(N)=O)C(=O)N[C@@H](Cc3cccnc3)C(=O)N(C)CC(N)=O)CCOCC2)NC1=O` [IL-23 receptor antagonist peptide, Ac-[Pen]*-N-T-[W(7-Me)]-[Lys(Ac)]-[Pen]*-Phe[4-(2-aminoethoxy)]-[2-Nal]-[THP]-E-N-[3-Pal]-Sarc-NH2 (*[Pen]-[Pen]* formdisulfidebond)], the “Subjects Achieving PSSD Sign Score 0 at Week 52” value (50 mg QD, Subjects w/Baseline PSSD Sign Score ≥1 (Table 26, second block)) was 5 (11.6%) and the “Subjects achieving PSSD Sign Score = 0 at Week 52” value (100 mg QD, subjects with Baseline PSSD Sign Score ≥1) was 6 (14.0%).
